Measured values as given in patent US20120171123A1, “USES AND COMPOSITIONS FOR TREATMENT OF RHEUMATOID ARTHRITIS” (priority 2006, published 2012).
Marks after values point to notes of the source that are not given here.

Tested on: MTX-naïve adult patients with active, early RA (<3 years)
Test: Study J: radiographic progression (TSS, joint erosion, joint space narrowing)
Format: in vivo, human
Text: The co-primary endpoints, comparing MTX alone with the combination at 1 year, were the ACR50 response (using non-responder imputation), and inhibition of radiographic progression, as measured by change in total Sharp score (TSS). In this study, the term “Major Clinical Response” (MCR) meant a continuous ACR70 response for 6 or more consecutive months.
At 1 and 2 years, the American College of Rheumatology (ACR) responses (ACR20, ACR50, and ACR70), the Disease Activity Score 28 (DAS28), and the change (Δ) in Total Sharp Score (TSS) were determined for all patients. Results were analyzed for the intention-to-treat (ITT) population using imputation for missing data. Clinical remission was defined as DAS28<2.6. The mean ΔTSS values at 1 year and 2 years (N=791) were determined for patients in each ACR response category (ACR20/50/70) and for patients with DAS28<2.6
Radiographic progression was measured by Total Sharp Score (TSS) at baseline, and 1 and 2 years in the intention to treat population (ITT) using imputation for missing data. In this analysis, patients were divided into 1 of 2 categories by disease duration at baseline: <6 months (Group 1) or 6 months to 3 years (Group 2). Mean changes in TSS were reported for both groups by each of the 3 treatment arms from baseline to Year 1 and from Year 1 to Year 2.
Radiographic progression was assessed by mean change from baseline in Total Sharp Score (TSS) and stratified into those with (ΔTSS>0.5) and without (Δ≦TSS 0.5). Patients were categorized as either having radiographic progression at 1 year (ΔTSS>0.5) or not (Δ≦TSS 0.5). A logistic regression model was used to identify predictors of radiographic disease progression by testing several baseline characteristics, including age, disease duration, RF status, TJC, SJC, joint erosions, and CRP. For analyses of CRP, patients were categorized as normal (CRP≦0.8 mg/dL) or abnormal (CRP>0.8 mg/dL).
Mean change from baseline in Total Sharp Score (TSS) was measured at 6 months, 1 year, and 2 years in the intention-to-treat (ITT) population using imputation for missing data. Patients were classified as having radiographic progression (mean change in TSS>0.5) or without radiographic progression (ΔTSS≦0.5). Patients with inadequate data were excluded from this analysis.
Patients in the Ada+MTX and the MTX arms were classified according to level of clinical response (non-responder (<ACR20), ACR20, ACR50, or ACR70) and radiographic progression (Yes or No (ΔTSS≦0.5)). The ΔTSS was analyzed overall, and for ACR subgroups. This included determination of mean ΔTSS and probability plots.
Study J was a 2-year, double-blind, active comparator-controlled, Phase III study. […] For each patient, radiographs of hands and feet were taken at baseline, 6 months, 1 year and 2 years and evaluated for joint erosions (JE) and joint space narrowing (JSN) by 2 blinded radiologists. Changes from baseline in the modified total Sharp score (TSS, 0-398) were calculated for patients in each treatment arm. Cumulative probability plots were generated by estimating the probability of exceeding a given change in TSS. For each treatment, we calculated the percentages of patients whose ΔTSS exceeded specified thresholds, and the probability of having a given ΔTSS (using cumulative probability plots). For each of 4 cumulative probability ranges, 0-10%, 10-50%, 50-90% and 90-100% (higher numbered ranges=greater ΔTSS), mean ΔTSS values were calculated. In previous reports, Study J radiographic analyses employed linear imputation. In the present analysis, only observed data were employed, with no imputation.

[1] = disease duration 6 months-3 years (n=333)

adalimumab: human anti-TNF mAb (HUMIRA, Abbott Laboratories), described in U.S. Pat. No. 6,090,382 as D2E7
Mean change in TSS (1 year, ACR20 responders): 2.3 | mean change in JE score (1 year, ACR20 responders): 1.0 | mean change in JSN (1 year, ACR20 responders): 1.3 | Mean change in TSS (1 year, ACR50 responders): 1.7 | mean change in JE score (1 year, ACR50 responders): 0.8 | mean change in JSN (1 year, ACR50 responders): 0.9 | Mean change in TSS (1 year, ACR70 responders): 1.1 | mean change in JE score (1 year, ACR70 responders): 0.5 | mean change in JSN (1 year, ACR70 responders): 0.6 | patients with no radiographic progression (1 year, abnormal baseline CRP normalized at 1 year): 53% | patients with no radiographic progression (1 year, elevated CRP at both baseline and 1 year): 32% | Mean change in TSS (1 year, patients with DAS28<2.6): −0.1 | % of patients with >4 change TSS (2 years): 30.7% | % of patients with >10 change TSS (2 years): 17.5% | % of patients with >20 change TSS (2 years): 5.4% | patients with no radiographic progression (change in TSS ≦0.5) (2 years): 45% | mean change in JE score (2 years, ACR20 responders): 2.3 | mean change in JSN (2 years, ACR20 responders): 2.2 | mean change in TSS from baseline (2 years, ACR20 responders): 4.5 | mean change in JE score (2 years, ACR50 responders): 1.5 | mean change in JSN (2 years, ACR50 responders): 1.9 | mean change in TSS from baseline (2 years, ACR50 responders): 3.4 | mean change in JE score (2 years, ACR70 responders): 1.6 | mean change in JSN (2 years, ACR70 responders): 1.9 | mean change in TSS from baseline (2 years, ACR70 responders): 3.5 | Mean change in TSS (2 years, patients with DAS28<2.6): 1.3 | Mean change in TSS (2 years, all points (0-100), observed data): 4.7 | Mean change in TSS (2 years, cumulative probability range 0-10): −2.8 | Mean change in TSS (2 years, cumulative probability range 50-90): 4.7^† | Mean change in TSS (2 years, cumulative probability range 90-100): 28.9 | % of patients with >4 change TSS (6 months): 0.5% | % of patients with >10 change TSS (6 months): 6.5% | % of patients with >20 change TSS (6 months): 10.6% | patients with no radiographic progression (6 months): 63% | Mean change in TSS (6 months, all points (0-100), observed data): 2.1* | Mean change in TSS (6 months, cumulative probability range 0-10): −3.4 | Mean change in TSS (6 months, cumulative probability range 90-100): 13.6 | Patients with No Radiographic Progression at 1 Year (CRP (BL and Year 1) Abnormal to Normal): 53%* | Patients with No Radiographic Progression at 1 Year (CRP (BL and Year 1) Always Normal): 91% | Patients with No Radiographic Progression at 1 Year (CRP (BL and Year 1) Never Normal): 32% | No Progression at Month 6, % (Study J): 63% | No Progression at Month 6, patients/total (Study J): 172/271 | No Progression at Month 6 and Year 2, % (Study J): 63% | No Progression at Month 6 and Year 2, patients/Month-6 non-progressors (Study J): 109/172 | Yr-2 Non-P, % (among Mo-6 Non-Progressors): 63% | Yr-2 Non-P, number of patients (among Mo-6 Non-Progressors): 109 | Yr-2 Prog, % (among Mo-6 Non-Progressors): 37% | Yr-2 Prog, number of patients (among Mo-6 Non-Progressors): 63 | Yr-2 Non-P, % (among Mo-6 Progressors): 13 (13%) | Yr-2 Non-P, number of patients (among Mo-6 Progressors): 13 (13%) | Yr-2 Prog, % (among Mo-6 Progressors): 87% | Yr-2 Prog, number of patients (among Mo-6 Progressors): 86 | mean change TSS during year 1 [1]: 2.4 sharp score units | mean change TSS during year 2 [1]: 3.2 sharp score units | mean change TSS during year 1 (disease duration <6 months): 3.4 sharp score units | mean change TSS during year 2 (disease duration <6 months): 2.1 sharp score units | Mo-6 Non-Progressors, % of arm (no progression = ΔTSS≦0.5): 63% | Mo-6 Non-Progressors, number of patients (no progression = ΔTSS≦0.5): 172 | patients with no progression at year 2 (no progression at month 6): 63% | Mo-6 Progressors, % of arm (progression = ΔTSS>0.5): 37% | Mo-6 Progressors, number of patients (progression = ΔTSS>0.5): 99 | patients with no progression at year 2 (progression at month 6): 13% | mean change from baseline in TSS (week 26, ITT with imputation): 2.1**
